In patent US20200123271A1, “COMPOSITION FOR ENHANCING SENSITIVITY OF PROSTATE CANCER TO ANTICANCER DRUG AND USE THEREOF” (KOREA INSTITUTE OF SCIENCE AND TECHNOLOGY, priority 2018, published 2020):

What was measured:
Type in all cases: cell-based
[1] = test system: alpha tubulin, beta3 tubulin; experiment: Activity of tubulin protein (Western blotting); conditions: LNCaP cells, knock-out (FIG. 4)
Experimental: NCI-H660 and LNCaP cell lines were seeded on 6-well plates at a density of 2×10^5 cells/well. After 24 hours, the cells were treated with CRISPR ERG, CRISPR TMPRSS2-ERG, and 30 μM casodex, respectively, for 48 hours. The cells were lysed using Pro-prep protein extraction solution (Intron Biotechnology, South Korea). Cell lysates were quantified using a BCA protein assay kit (Thermo Fisher Scientific, USA).
Then, the expression of proteins was identified by Western blotting. Specifically, SDS 5× loading buffer was added to protein samples diluted to 10-20 μg and heated for 5 minutes. The samples were placed in 4-20% Mini-protean TGX gel (Biorad, USA) and run at 120 V for 60 minutes. Then, the gel was transferred to a nitrocellulose membrane at 300 mA for 90 minutes. The membrane was blocked by 3% BSA in PBS and incubated overnight with a primary antibody in PBS containing 1% BSA at 4° C. The membrane was washed three times with PBS containing with 0.01% Tween 20. A secondary antibody was cultured in a PBS containing 1% BSA for 1 hour at room temperature. The membrane was washed three times with PBS containing 0.01% Tween 20. Then, the membrane was visualized with LAS-3000 (Fujifilm, Japan).

pgp = experiment: Expression of Pgp (pgp-glo assay, ATP level by luminescence)
Experimental: NCI-H660 and LNCaP cells were seeded on white transparent bottom 96-well plates at a density of 10^4 cells/well. After 24 hours, the cells were treated with CRISPR ERG, crisprTMPRSS2-ERG, and 30 μM casodex, respectively, for 48 hours. 20 μL of a pgp-glo assay buffer (Promega, USA) was added to all wells except for Na3VO4 condition. 20 μL of 0.25 mM Na3VO4 was added to the Na3VO4 condition. Reaction was initiated by adding 10 μL of 25 mM MgATP. The plates were mixed for a while and then incubated at 37° C. for 40 minutes. The 40 μL of an ATP detection reagent was added to all wells. Then, the plates were incubated at room temperature for 20 minutes and luminescence was measured.

caspase 3/7 = experiment: Expression of caspase 3/7 (luminescence assay)
Experimental: NCI-H660 and LNCaP cells were seeded on black transparent bottom 96-well plates at a density of 10^4 cells/well. After 24 hours, the cells were treated with CRISPR ERG, crisprTMPRSS2-ERG, and 30 μM casodex, respectively, for 48 hours. 50 μL of a caspase 3/7 assay buffer (Promega, USA) was added thereto, followed by incubation at room temperature for 1 hour. Then, the activity of caspase 3/7 was detected by measuring luminescence.

LNCaP cells = experiment: Cell viability, CellTiter 96 aqueous one solution cell proliferation assay
Experimental: (§1) NCI-H660 and LNCaP cells were seeded on transparent 96-well plates at a density of 10^4 cells/well. […] 10 μL of a CellTiter 96 aqueous one solution cell proliferation assay buffer (Promega, USA) was added thereto, followed by incubation at 37° C. for 1 hour. Then, cell viability was evaluated by measuring absorbance at […].
(§2) NCI-H660 and LNCaP cells were seeded on transparent 96-well plates at a density of 10^4 cells/well. After 24 hours, the cells were treated with CRISPR ERG, CRISPR TMPRSS2-ERG, and 30 μM casodex, respectively, for 48 hours. 10 μL of a CellTiter 96 aqueous one solution cell proliferation assay buffer (Promega, USA) was added thereto, followed by incubation at 37° C. for 1 hour. Then, cell viability was evaluated by measuring absorbance at […].

NCI-H660 cells = experiment: as above
Experimental: as §1, §2

TMPRSS2-ERG gene = experiment: Expression of TMPRSS2-ERG gene by RNA extraction, cDNA synthesis and PCR; conditions: CRISPR treated in combination with 30 μM casodex, 48 hours (FIG. 2C)
Experimental: To identify whether the ERG gene of the cell line prepared in Example 2 was knocked out, expression of the gene was identified by extracting RNA and synthesizing cDNA.
NCI-H660 and LNCaP cell lines were seeded on 6-well plates at a density of 2×10^5 cells/well. After 24 hours, the cells were treated with CRISPR ERG, CRISPR TMPRSS2-ERG, and 30 μM casodex, respectively, for 48 hours. 1 mL of Trizol was added thereto to lyse the cells and the samples were homogenized by voltexing. 100 μL of chloroform was added thereto to separate RNA included in a transparent upper aqueous layer from proteins included in a lower organic layer. The solution was vigorously shaken and incubated at room temperature for 3 minutes. The resultant was centrifuged at 4° C. for 15 minutes at 13,000 rpm to obtain a clean aqueous layer including total RNA. Subsequently, the supernatant of the sample was transferred to a new tube and […] of isopropanol was added to each sample to precipitate RNA. The sample was incubated at room temperature for 10 minutes, and then centrifuged at 13,000 rpm at 4° C. for 15 minutes to obtain pellets of total RNA. Then, the supernatant was decanted and RNA was washed with 1 mL of 75% ethanol. […] RNA was resuspended in RNase-free water and absorbance of RNA was measured at 260 nm to determine a concentration of RNA. […]

[2] = LNCaP cells, knock-out in combination with 30 μM casodex (FIG. 3C)
[3] = normal and resistant LNCaP cells, knock-out alone (FIG. 3C)

Compound | amount of polymeric alpha tubulin [1] | amount of water-soluble alpha tubulin [1] | beta3 tubulin [1] | ATP level (pgp; [2]) | ATP level (pgp; [3]) | expression of caspase 3/7 (caspase 3/7; cell line treated with CRISPR TMPRSS2-ERG alone, 48 hours (FIG. 2D)) | cell viability (LNCaP cells; 30 μM casodex in combination with CRISPR TMPRSS2-ERG, 48 hours, compared with CRISPR TMPRSS2-ERG alone (FIG. 2A)) | cell viability (LNCaP cells; casodex concentration in the range of 100 μM to 200 μM (FIG. 2A)) | cell viability (NCI-H660 cells; 30 μM casodex in combination with CRISPR TMPRSS2-ERG, 48 hours, compared with CRISPR TMPRSS2-ERG alone (FIG. 2B)) | cell viability (NCI-H660 cells; casodex concentration in the range of 100 μM to 200 μM (FIG. 2B)) | expression level of TMPRSS2-ERG gene (TMPRSS2-ERG gene; LNCaP cell line) | expression level of TMPRSS2-ERG gene (TMPRSS2-ERG gene; NCI-H660 cell line) | expression of caspase 3/7 (caspase 3/7; 30 μM casodex in combination with CRISPR TMPRSS2-ERG, 48 hours, compared with CRISPR TMPRSS2-ERG alone (FIG. 2D))
CRISPR TMPRSS2-ERG: CRISPR sgRNA for TMPRSS2-ERG, 5′AAGGCTTCCTGCCGCGCTCCAGG 3′, delivered with Cas9 nuclease to knock out TMPRSS2-ERG (listed as DNA, chemistry not given here; the letters are possibly those of the target site) | decreased | increased | no significant difference | significantly increased | significantly increased | significantly increased |  |  |  |  |  |  | 
CRISPR ERG: CRISPR sgRNA for ERG, 5′TGCCTACGGAACGCCACACCTGG 3′, delivered with Cas9 nuclease to knock out ERG (listed as DNA, chemistry not given here; the letters are possibly those of the target site) | decreased | increased | no significant difference | significantly increased | significantly increased |  |  |  |  |  |  |  | 
CC(O)(CS(=O)(=O)c1ccc(F)cc1)C(=O)Nc1ccc(C#N)c(C(F)(F)F)c1 (stereo not drawn) [casodex] |  |  |  |  |  |  | significantly reduced | significantly reduced | significantly reduced | significantly reduced | significantly reduced | significantly reduced | more significantly increased
